We go through 31 compounds from patent US11028079B2 (ConverGene LLC, priority 2015, dated 2021).

Some results are limits rather than exact numbers.

In this test the target is T1, BRD4 bromodomains (Homo sapiens, UniProt O60885).
T1 construct: fused on or other part: T7 phage capsid protein (phage-display fusion; the phage DNA is read out by qPCR)
Briefly: BROMOscan bromodomain competition binding assay (DiscoveRx). The conditions noted are these: Kd from 11 compound concentrations ranging from 0 to 10 μM, read-out: BROMOscan Relative Activity. A digest of the protocol: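 Compounds in 0.1% DMSO/0.9% MEG competed with a solid-phase acetylated peptide for T7 phage-fused BRD4 bromodomains, with the retained bromodomain measured by qPCR.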
Consider `Cc1noc(C)c1-c1ccc2nc(N3CCN(CCN(C)C)CC3)nc(NCc3cccc(Cl)c3)c2c1` [Example 12, N-(3-chlorobenzyl)-2-(4-(2-(dimethylamino)ethyl)piperazin-1-yl)-6-(3,5-dimethylisoxazol-4-yl)quinazolin-4-amine], for which the Kd is below 500 nM.

Turning to `Cc1noc(C)c1-c1ccc2nc(N3CCN(S(C)(=O)=O)CC3)nc(N3CCOC[C@@H]3c3ccccc3)c2c1` [Example 269, (S)-4-(6-(3,5-dimethylisoxazol-4-yl)-2-(4-(methylsulfonyl)piperazin-1-yl)quinazolin-4-yl)-3-phenylmorpholine], the Kd was below 500 nM.

In the case of `Cc1noc(C)c1-c1ccc2nc(N3CCN(CCCN(C)C)CC3)nc(NCc3cccc(Cl)c3)c2c1` [Example 16, N-(3-chlorobenzyl)-2-(4-(3-(dimethylamino)propyl)piperazin-1-yl)-6-(3,5-dimethylisoxazol-4-yl)quinazolin-4-amine], the Kd is below 500 nM.

As to `Cc1noc(C)c1-c1ccc2nc(C(=O)NC3CN(C)C3)nc(NC3(c4cccc(Cl)c4)CC3)c2c1` [Example 242, 4-((1-(3-chlorophenyl)cyclopropyl)amino)-6-(3,5-dimethylisoxazol-4-yl)-N-(1-methylazetidin-3-yl)quinazoline-2-carboxamide], the Kd was below 500 nM.

Turning to `Cc1noc(C)c1-c1ccc2nc(N3CCN(CCN(C)C)CC3)nc(NCc3cc(Cl)ccn3)c2c1` [Example 82, N-((4-chloropyridin-2-yl)methyl)-2-(4-(2-(dimethylamino)ethyl)piperazin-1-yl)-6-(3,5-dimethylisoxazol-4-yl)quinazolin-4-amine], the Kd is below 500 nM.

As to `Cc1ccc(NC(=O)c2nc(NCc3cccc(Cl)c3)c3cc(-c4c(C)noc4C)ccc3n2)cn1` [Example 219, 4-((3-chlorobenzyl)amino)-6-(3,5-dimethylisoxazol-4-yl)-N-(6-methylpyridin-3-yl)quinazoline-2-carboxamide], the Kd was in the range of 500 to 5000 nM.

As for `Cc1noc(C)c1-c1ccc2nc(C(=O)NCc3ccncc3)nc(NCc3cncc(Cl)c3)c2c1` [Example 207, 4-(((5-chloropyridin-3-yl)methyl)amino)-6-(3,5-dimethylisoxazol-4-yl)-N-(pyridin-4-ylmethyl)quinazoline-2-carboxamide], the Kd was below 500 nM.

Regarding `Cc1noc(C)c1-c1ccc2nc(Cl)nc(NCc3cncc(Cl)c3)c2c1` [Example 112, 2-chloro-N-((5-chloropyridin-3-yl)methyl)-6-(3,5-dimethylisoxazol-4-yl)quinazolin-4-amine], the Kd fell in the range of 500 to 5000 nM.

`Cc1noc(C)c1-c1ccc2nc(NCCN3CCN(C)CC3)nc(NCc3cccc(Cl)c3)c2c1` [Example 11, N4-(3-chlorobenzyl)-6-(3,5-dimethylisoxazol-4-yl)-N2-(2-(4-methylpiperazin-1-yl)ethyl)quinazoline-2,4-diamine]: the Kd is below 500 nM.

Regarding `Cn1cc(-c2ccc3nc(-c4cnn(CCO)c4)nc(NCc4cncc(Cl)c4)c3c2)ccc1=O` [Example 143, 5-(4-(((5-chloropyridin-3-yl)methyl)amino)-2-(1-(2-hydroxyethyl)-1H-pyrazol-4-yl)quinazolin-6-yl)-1-methylpyridin-2(1H)-one], the Kd was below 500 nM.

For `Cc1noc(C)c1-c1ccc2nc(N3CCN(CCN(C)C)CC3)nc(NCc3cccnc3)c2c1` [Example 80, 2-(4-(2-(dimethylamino)ethyl)piperazin-1-yl)-6-(3,5-dimethylisoxazol-4-yl)-N-(pyridin-3-ylmethyl)quinazolin-4-amine], the Kd is below 500 nM.

On to `Cc1noc(C)c1-c1ccc2c(NCc3cccc(Cl)c3)nc(Cl)nc2c1` [Example 38, 2-chloro-N-(3-chlorobenzyl)-7-(3,5-dimethylisoxazol-4-yl)quinazolin-4-amine], for which the Kd lay in the range of 500 to 5000 nM.

`Cc1noc(C)c1-c1ccc2nc(N3CCN(CC(=O)N(C)C)CC3)nc(N3CCOC[C@@H]3c3ccccc3)c2c1` [Example 303, (S)-2-(4-(6-(3,5-dimethylisoxazol-4-yl)-4-(3-phenylmorpholino)quinazolin-2-yl)piperazin-1-yl)-N,N-dimethylacetamide]: the Kd was below 500 nM.

On to `COc1nc(NCc2cccc(Cl)c2)c2cc(-c3c(C)noc3C)ccc2n1` [Example 8, N-(3-chlorobenzyl)-6-(3,5-dimethylisoxazol-4-yl)-2-methoxyquinazolin-4-amine], for which the Kd was below 500 nM.

Regarding `Cn1cc(-c2ccc3nc(Cl)nc(NCc4cccc(Cl)c4)c3c2)ccc1=O` [Example 100, 5-(2-chloro-4-((3-chlorobenzyl)amino)quinazolin-6-yl)-1-methylpyridin-2(1H)-one], the Kd is above 5000 nM.

Take `Cc1csc(CNC(=O)c2nc(NCc3cccc(Cl)c3)c3cc(-c4c(C)noc4C)ccc3n2)n1` [Example 214, 4-((3-chlorobenzyl)amino)-6-(3,5-dimethylisoxazol-4-yl)-N-((4-methylthiazol-2-yl)methyl)quinazoline-2-carboxamide]: the Kd was below 500 nM.

`Cc1noc(C)c1-c1ccc2nc(N3CCC(CN(C)C)CC3)nc(NCc3cccc(Cl)c3)c2c1` [Example 41, N-(3-chlorobenzyl)-2-(4-((dimethylamino)methyl)piperidin-1-yl)-6-(3,5-dimethylisoxazol-4-yl)quinazolin-4-amine]: the Kd was below 500 nM.

For the compound `Cc1noc(C)c1-c1ccc2nc(-c3csc(CO)c3)nc(N3CCOC[C@@H]3c3ccccc3)c2c1` [Example 325, (S)-(4-(6-(3,5-dimethylisoxazol-4-yl)-4-(3-phenylmorpholino)quinazolin-2-yl)thiophen-2-yl)methanol], the Kd fell in the range of 500 to 5000 nM.

For the compound `Cn1cc(-c2ccc3nc(N4CCN(C(=O)CO)CC4)nc(NCc4cccc(Cl)c4)c3c2)ccc1=O` [Example 106, 5-(4-((3-chlorobenzyl)amino)-2-(4-(2-hydroxyacetyl)piperazin-1-yl)quinazolin-6-yl)-1-methylpyridin-2(1H)-one], the Kd was below 500 nM.

Take `Cc1noc(C)c1-c1ccc2nc(-c3cnn(CC(=O)N(C)C)c3)nc(NCc3cccc(Cl)c3)c2c1` [Example 98, 2-(4-(4-((3-chlorobenzyl)amino)-6-(3,5-dimethylisoxazol-4-yl)quinazolin-2-yl)-1H-pyrazol-1-yl)-N,N-dimethylacetamide]: the Kd was below 500 nM.

As to `Cc1nn(C)cc1CNC(=O)c1nc(NCc2cncc(Cl)c2)c2cc(-c3c(C)noc3C)ccc2n1` [Example 238, 4-(((5-chloropyridin-3-yl)methyl)amino)-N-((1,3-dimethyl-1H-pyrazol-4-yl)methyl)-6-(3,5-dimethylisoxazol-4-yl)quinazoline-2-carboxamide], the Kd was below 500 nM.

With `Cc1noc(C)c1-c1ccc2nc(N3CCN(C(=O)c4cnn(C)c4)CC3)nc(NCc3cccc(Cl)c3)c2c1` [Example 18, (4-(4-((3-chlorobenzyl)amino)-6-(3,5-dimethylisoxazol-4-yl)quinazolin-2-yl)piperazin-1-yl)(1-methyl-1H-pyrazol-4-yl)methanone], the Kd was below 500 nM.

Turning to `CC(=O)N1CCN(c2nc(N3CCOC[C@@H]3c3ccccc3)c3cc(-c4c(C)noc4C)ccc3n2)CC1` [Example 294, (S)-1-(4-(6-(3,5-dimethylisoxazol-4-yl)-4-(3-phenylmorpholino)quinazolin-2-yl)piperazin-1-yl)ethan-1-one], the Kd is below 500 nM.

For the compound `Cc1noc(C)c1-c1ccc2nc(N3CCN(CCN(C)C)CC3)cc(NCc3cccc(Cl)c3)c2c1` [Example 26, N-(3-chlorobenzyl)-2-(4-(2-(dimethylamino)ethyl)piperazin-1-yl)-6-(3,5-dimethylisoxazol-4-yl)quinolin-4-amine], the Kd is below 500 nM.

For `Cc1noc(C)c1-c1ccc2nc(N3CCC4(CCNC4=O)CC3)nc(N3CCOC[C@@H]3c3ccccc3)c2c1` [Example 329, (S)-8-(6-(3,5-dimethylisoxazol-4-yl)-4-(3-phenylmorpholino)quinazolin-2-yl)-2,8-diazaspiro[4.5]decan-1-one], the Kd was below 500 nM.

As for `Cc1nc(C)c(CNC(=O)c2nc(NCc3cccc(Cl)c3)c3cc(-c4c(C)noc4C)ccc3n2)s1` [Example 260, 4-((3-chlorobenzyl)amino)-6-(3,5-dimethylisoxazol-4-yl)-N-((2,4-dimethylthiazol-5-yl)methyl)quinazoline-2-carboxamide], the Kd was below 500 nM.

In the case of `Cc1noc(C)c1-c1ccc2nc(N3CCN(CC(C)(C)O)CC3)nc(NCc3cncc(Cl)c3)c2c1` [Example 136, 1-(4-(4-(((5-chloropyridin-3-yl)methyl)amino)-6-(3,5-dimethylisoxazol-4-yl)quinazolin-2-yl)piperazin-1-yl)-2-methylpropan-2-ol], the Kd was below 500 nM.

For the compound `Cc1noc(C)c1-c1ccc2nc(C(=O)NCc3cnn(C)c3)nc(NCc3cccc(Cl)c3)c2c1` [Example 186, 4-((3-chlorobenzyl)amino)-6-(3,5-dimethylisoxazol-4-yl)-N-((1-methyl-1H-pyrazol-4-yl)methyl)quinazoline-2-carboxamide], the Kd is below 500 nM.

For `Cc1noc(C)c1-c1ccc2nc(-c3cnn(CC(C)(C)O)c3)nc(NC3(c4cccc(Cl)c4)CC3)c2c1` [Example 182, 1-(4-(4-((1-(3-chlorophenyl)cyclopropyl)amino)-6-(3,5-dimethylisoxazol-4-yl)quinazolin-2-yl)-1H-pyrazol-1-yl)-2-methylpropan-2-ol], the Kd was below 500 nM.

On to `Cc1noc(C)c1-c1ccc2nc(C(=O)NC3CCN(C)CC3)nc(N3CCOC[C@@H]3c3ccccc3)c2c1` [Example 280, (S)-6-(3,5-dimethylisoxazol-4-yl)-N-(1-methylpiperidin-4-yl)-4-(3-phenylmorpholino)quinazoline-2-carboxamide], for which the Kd is below 500 nM.

Take `Cc1noc(C)c1-c1ccc2nc(C(=O)NC3CN(C)C3)nc(NCc3cccc(Cl)c3)c2c1` [Example 198, 4-((3-chlorobenzyl)amino)-6-(3,5-dimethylisoxazol-4-yl)-N-(1-methylazetidin-3-yl)quinazoline-2-carboxamide]: the Kd is below 500 nM.
